Data from the supplement of paper PMC11451515.

Columns and labels:
Details in all cases: 48 h
P12-Ichikawa [1] = test: AUC of viability dose-response curve (% viability x log10 dose units); higher = less sensitive
Method in brief: (§1)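 Leukemia cells adapted to each medium (500 or 1000 cells/well, 1536-well plates) were exposed to library compounds in DMSO for 48 h at 37°C at 11 threefold doses, 47 μM to 0.79 nM. Luminescence by CellTiter-Glo One was normalised per plate to DMSO and cell-free wells, then fitted with a four-parameter log-logistic curve on log10 dose. Curves above full viability were scaled and quality-control failures removed before area under the curve was integrated by trapezoidal rule.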

SEM cells [2] = test: as above
Method in brief: as §1

NOMO1 [3] = test: as above
Method in brief: as §1

P12-Ichikawa [4] = test: cell viability relative to DMSO control; higher = less cytotoxic
Method in brief: (§2)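 Viability is a per-plate percentage relative to DMSO wells, with cell-free wells as background. CellTiter-Glo One luminescence was read after 48 h at 37°C on 1536-well plates (5 μl) of NOMO1 or SEM (500 cells/well) or P12-Ichikawa (1000 cells/well) leukemia cells. The cells had been adapted for at least four passages in each medium and pin-dosed with library compounds in DMSO from 47 μM to 0.79 nM in 11 threefold steps.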

SEM cells [5] = test: as above
Method in brief: as §2

NOMO1 [6] = test: as above
Method in brief: as §2

CN1CCc2c(c3ccccc3n2Cc2ccc(C(=O)NO)cc2)C1
AUC of viability dose-response curve
Details	NOMO1 [3]	P12-Ichikawa [1]	SEM cells [2]
HPLM + 10% dialyzed FBS	373	401	348
RPMI 5 mM glucose + 10% FBS	358	370	364
RPMI 5 mM glucose + 10% dialyzed FBS	397	377	310

cell viability [%]
Details	NOMO1 [6]	P12-Ichikawa [4]	SEM cells [5]
HPLM + 10% dialyzed FBS, 0.000781 µM	76	84.8	81.4
HPLM + 10% dialyzed FBS, 0.00234 µM	78.8	83.9	76.1
HPLM + 10% dialyzed FBS, 0.00702 µM	76.3	87.7	79.7
HPLM + 10% dialyzed FBS, 0.0211 µM	79.8	89.6	95.4
HPLM + 10% dialyzed FBS, 0.0632 µM	80	91.5	84.2
HPLM + 10% dialyzed FBS, 0.19 µM	80.5	85	79.2
HPLM + 10% dialyzed FBS, 0.569 µM	82.6	89.6	70.7
HPLM + 10% dialyzed FBS, 1.71 µM	87.6	83.6	83.9
HPLM + 10% dialyzed FBS, 5.12 µM	97.5	87.5	88.3
HPLM + 10% dialyzed FBS, 15.4 µM	64.7	68	25.2
HPLM + 10% dialyzed FBS, 46.1 µM	38.6	66.9	11.7
RPMI 5 mM glucose + 10% FBS, 0.000781 µM	75.2	81	87.3
RPMI 5 mM glucose + 10% FBS, 0.00234 µM	70.2	77.4	78.9
RPMI 5 mM glucose + 10% FBS, 0.00702 µM	77.2	78.6	88.5
RPMI 5 mM glucose + 10% FBS, 0.0211 µM	82.5	80.7	92.9
RPMI 5 mM glucose + 10% FBS, 0.0632 µM	74.1	84.1	84.8
RPMI 5 mM glucose + 10% FBS, 0.19 µM	73.4	73.1	78
RPMI 5 mM glucose + 10% FBS, 0.569 µM	80.9	79.9	57.5
RPMI 5 mM glucose + 10% FBS, 1.71 µM	76.5	83.4	97.3
RPMI 5 mM glucose + 10% FBS, 5.12 µM	75.8	84.2	88.3
RPMI 5 mM glucose + 10% FBS, 15.4 µM	78.7	64.1	38.6
RPMI 5 mM glucose + 10% FBS, 46.1 µM	47.2	56.8	26.2
RPMI 5 mM glucose + 10% dialyzed FBS, 0.000781 µM	71.5	82.2	76.7
RPMI 5 mM glucose + 10% dialyzed FBS, 0.00234 µM	69.8	81.3	60.4
RPMI 5 mM glucose + 10% dialyzed FBS, 0.00702 µM	91.9	83.1	67
RPMI 5 mM glucose + 10% dialyzed FBS, 0.0211 µM	91.1	78.4	78.4
RPMI 5 mM glucose + 10% dialyzed FBS, 0.0632 µM	84.6	81.9	69.5
RPMI 5 mM glucose + 10% dialyzed FBS, 0.19 µM	87.7	78	61.2
RPMI 5 mM glucose + 10% dialyzed FBS, 0.569 µM	89.5	83.3	58.1
RPMI 5 mM glucose + 10% dialyzed FBS, 1.71 µM	98	77.8	77.2
RPMI 5 mM glucose + 10% dialyzed FBS, 5.12 µM	92.5	86.5	94.6
RPMI 5 mM glucose + 10% dialyzed FBS, 15.4 µM	72.3	63.3	32
RPMI 5 mM glucose + 10% dialyzed FBS, 46.1 µM	53.5	68.1	22.6

COc1cc2c(cc1OC)[C@@H]1Cc3ccc(OC)c(OC)c3CN1CC2
AUC of viability dose-response curve
Details	NOMO1 [3]	P12-Ichikawa [1]	SEM cells [2]
HPLM + 10% dialyzed FBS	452	467	473
RPMI 5 mM glucose + 10% FBS	458	444	449
RPMI 5 mM glucose + 10% dialyzed FBS	464	461	477

cell viability [%]
Details	NOMO1 [6]	P12-Ichikawa [4]	SEM cells [5]
HPLM + 10% dialyzed FBS, 0.000781 µM	120	110	94.1
HPLM + 10% dialyzed FBS, 0.00234 µM	129	114	123
HPLM + 10% dialyzed FBS, 0.00702 µM	115	114	118
HPLM + 10% dialyzed FBS, 0.0211 µM	105	113	123
HPLM + 10% dialyzed FBS, 0.0632 µM	118	118	114
HPLM + 10% dialyzed FBS, 0.19 µM	110	117	119
HPLM + 10% dialyzed FBS, 0.569 µM	112	112	121
HPLM + 10% dialyzed FBS, 1.71 µM	117	106	122
HPLM + 10% dialyzed FBS, 5.12 µM	114	112	117
HPLM + 10% dialyzed FBS, 15.4 µM	99.4	99.1	109
HPLM + 10% dialyzed FBS, 46.1 µM	31.2	94.5	109
RPMI 5 mM glucose + 10% FBS, 0.000781 µM	98.1	–	110
RPMI 5 mM glucose + 10% FBS, 0.00234 µM	101	–	108
RPMI 5 mM glucose + 10% FBS, 0.00702 µM	94.8	–	103
RPMI 5 mM glucose + 10% FBS, 0.0211 µM	97.1	–	111
RPMI 5 mM glucose + 10% FBS, 0.0632 µM	106	–	104
RPMI 5 mM glucose + 10% FBS, 0.19 µM	104	–	109
RPMI 5 mM glucose + 10% FBS, 0.569 µM	97.6	–	99.3
RPMI 5 mM glucose + 10% FBS, 1.71 µM	101	–	93.9
RPMI 5 mM glucose + 10% FBS, 5.12 µM	102	–	99.4
RPMI 5 mM glucose + 10% FBS, 15.4 µM	92.7	–	102
RPMI 5 mM glucose + 10% FBS, 46.1 µM	34.3	–	78.4
RPMI 5 mM glucose + 10% dialyzed FBS, 0.000781 µM	112	111	97.9
RPMI 5 mM glucose + 10% dialyzed FBS, 0.00234 µM	114	117	108
RPMI 5 mM glucose + 10% dialyzed FBS, 0.00702 µM	116	119	113
RPMI 5 mM glucose + 10% dialyzed FBS, 0.0211 µM	107	109	112
RPMI 5 mM glucose + 10% dialyzed FBS, 0.0632 µM	96.5	110	129
RPMI 5 mM glucose + 10% dialyzed FBS, 0.19 µM	109	110	124
RPMI 5 mM glucose + 10% dialyzed FBS, 0.569 µM	95.6	124	108
RPMI 5 mM glucose + 10% dialyzed FBS, 1.71 µM	97.8	117	133
RPMI 5 mM glucose + 10% dialyzed FBS, 5.12 µM	106	109	122
RPMI 5 mM glucose + 10% dialyzed FBS, 15.4 µM	103	97.2	120
RPMI 5 mM glucose + 10% dialyzed FBS, 46.1 µM	56	80.3	82.2

Cc1cc(Nc2cc(N3CCN(C)CC3)nc(/C=C/c3ccccc3)n2)n[nH]1
AUC of viability dose-response curve
Details	NOMO1 [3]	P12-Ichikawa [1]	SEM cells [2]
HPLM + 10% dialyzed FBS	340	320	264
RPMI 5 mM glucose + 10% FBS	334	333	261
RPMI 5 mM glucose + 10% dialyzed FBS	345	333	255

cell viability [%]
Details	NOMO1 [6]	P12-Ichikawa [4]	SEM cells [5]
HPLM + 10% dialyzed FBS, 0.000781 µM	111	105	83.9
HPLM + 10% dialyzed FBS, 0.00234 µM	122	111	109
HPLM + 10% dialyzed FBS, 0.00702 µM	117	115	112
HPLM + 10% dialyzed FBS, 0.0211 µM	122	120	96.5
HPLM + 10% dialyzed FBS, 0.0632 µM	135	118	95.4
HPLM + 10% dialyzed FBS, 0.19 µM	114	122	60.3
HPLM + 10% dialyzed FBS, 0.569 µM	130	116	36.6
HPLM + 10% dialyzed FBS, 1.71 µM	53.7	12.1	6.67
HPLM + 10% dialyzed FBS, 5.12 µM	14.8	5.08	5.57
HPLM + 10% dialyzed FBS, 15.4 µM	5.4	4.47	4.53
HPLM + 10% dialyzed FBS, 46.1 µM	5.88	5.23	5.51
RPMI 5 mM glucose + 10% FBS, 0.000781 µM	106	113	86.5
RPMI 5 mM glucose + 10% FBS, 0.00234 µM	98.4	108	108
RPMI 5 mM glucose + 10% FBS, 0.00702 µM	110	113	94.1
RPMI 5 mM glucose + 10% FBS, 0.0211 µM	112	117	112
RPMI 5 mM glucose + 10% FBS, 0.0632 µM	115	121	93.8
RPMI 5 mM glucose + 10% FBS, 0.19 µM	123	125	60.6
RPMI 5 mM glucose + 10% FBS, 0.569 µM	100	119	29.5
RPMI 5 mM glucose + 10% FBS, 1.71 µM	47.6	41.5	5.23
RPMI 5 mM glucose + 10% FBS, 5.12 µM	13.3	8.43	4.53
RPMI 5 mM glucose + 10% FBS, 15.4 µM	4.18	4.4	3.57
RPMI 5 mM glucose + 10% FBS, 46.1 µM	3.81	4.88	4.68
RPMI 5 mM glucose + 10% dialyzed FBS, 0.000781 µM	108	107	100
RPMI 5 mM glucose + 10% dialyzed FBS, 0.00234 µM	104	114	112
RPMI 5 mM glucose + 10% dialyzed FBS, 0.00702 µM	111	112	97.1
RPMI 5 mM glucose + 10% dialyzed FBS, 0.0211 µM	104	112	112
RPMI 5 mM glucose + 10% dialyzed FBS, 0.0632 µM	110	121	95.3
RPMI 5 mM glucose + 10% dialyzed FBS, 0.19 µM	114	130	57.8
RPMI 5 mM glucose + 10% dialyzed FBS, 0.569 µM	105	126	28.2
RPMI 5 mM glucose + 10% dialyzed FBS, 1.71 µM	56.3	37.4	6.13
RPMI 5 mM glucose + 10% dialyzed FBS, 5.12 µM	24.2	11.6	4.41
RPMI 5 mM glucose + 10% dialyzed FBS, 15.4 µM	7.24	5.07	3.5
RPMI 5 mM glucose + 10% dialyzed FBS, 46.1 µM	5	5.54	5.17
